Results on 1 compound are retold here after US9733187B2, “Method of detecting bladder cancer by optical analysis of bodily fluids” (KING SAUD UNIVERSITY, priority 2015, dated 2017).

Data set [1] can be described thus: Porphyrin elimination after oral administration of 5-aminolevulinic acid. The data set is classed as in vivo.
Method: The patient is administered 5-aminolevulinic acid (also referred to as 8-aminolevulinic acid), which is the first compound in the porphyrin synthesis pathway (i.e., the pathway that leads to heme in mammals). The 5-aminolevulinic acid is preferably administered orally at a dosage of approximately 5 mg of 5-aminolevulinic acid per kilogram of the patient's body weight. The patient can drink water upon taking the 5-aminolevulinic acid. The patient can wait approximately eight hours before urinating.
Approximately eight hours after oral administration of the 5-aminolevulinic acid, a bodily fluid sample is collected from the patient, and this bodily fluid sample is optically analyzed to measure a concentration of porphyrin therein. Preferably, multiple bodily fluid samples are taken at two hour intervals (i.e., one initial sample at the time of administration, and then subsequent samples taken at two hours, four hours, six hours and eight hours after administration). The bodily fluid being analyzed may be urine and/or blood.
Porphyrin is synthesized by the 5-aminolevulinic acid which is administered to the patient.
The conditions of data set [2]: porphyrin synthesized from administered 5-aminolevulinic acid; cited from earlier work.

Take `C1=Cc2cc3ccc(cc4nc(cc5ccc(cc1n2)[nH]5)C=C4)[nH]3` [Porphyrin, porphyrin]: in data set [1] (bladder cancer patients), the porphyrin retention time entry was “up to eight”. In addition, the “porphyrin eliminated through urine” value in data set [1] (healthy person, after four hours following administration of 5-aminolevulinic acid) was “approximately 90%”. Moreover, the half-life entry in data set [2] was “approximately two”.
